From patent US8183275B2, “Substituted imidazoles as bombesin receptor subtype-3 modulators” (Merck Sharp & Dohme Corp., priority 2006, dated 2012)

target: T1, human BRS-3 (Homo sapiens, UniProt P32247); assay: Bombesin Receptor Subtype 3 (BRS3) binding assay (radioligand filtration); conditions: BRS-3 Receptor Binding Activity for Selected Compounds
T1 construct: expressed in transfected cells
T1 sequence (P32247 1-399): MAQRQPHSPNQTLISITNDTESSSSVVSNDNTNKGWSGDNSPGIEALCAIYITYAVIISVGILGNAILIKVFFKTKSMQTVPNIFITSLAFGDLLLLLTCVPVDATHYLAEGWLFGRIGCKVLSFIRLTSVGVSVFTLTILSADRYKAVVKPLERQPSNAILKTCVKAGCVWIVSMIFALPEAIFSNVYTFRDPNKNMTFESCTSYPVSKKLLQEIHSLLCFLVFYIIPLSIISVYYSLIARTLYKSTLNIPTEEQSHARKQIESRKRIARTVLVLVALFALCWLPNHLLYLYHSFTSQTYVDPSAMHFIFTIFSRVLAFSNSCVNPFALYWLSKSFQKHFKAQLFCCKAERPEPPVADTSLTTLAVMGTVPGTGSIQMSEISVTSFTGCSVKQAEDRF
Experimental: Dissociated cells were collected by centrifuging at 1000 rpm for 10 minutes. Cell pellets were resuspended and homogenized at 4° C. using a Polytron homogenizer (setting 40, 20 stokes) in approximately 10 mL membrane preparation buffer (10 mM Tris pH 7.4, 0.01 mM Pefabloc, 10 μM phosphoramidon and 40 μg/mL Bacitracin) per T175 flask. After centrifugation at 2200 rpm (1000×g) for 10 minutes at 4° C., the supernatant was transferred to a clean centrifuge tube and spun at 18,000 rpm (38,742×g) for 15 minutes. at 4° C. […]
The radioligand, [^3H]-1-{4-[(4,5-difluoro-2-hydroxycarbonylphenyl)phenyl])-2-(4-cyclohexylmethyl-1H-imidazol-2-yl)ethane, was used for binding to receptor membranes generated with BRS3 from other species and was also utilized for the human receptor. […] After incubation for 1-2 hours at room temperature, membrane bound [^3H]-biphenyl was separated from free radiologand by filtering through GF/C filters presoaked in 1% PEI solution. The filters were washed five times with ice-cold washing buffer (50 mM Tris pH 7.4, 10 mM MgCl2, 2.5 mM EDTA and 0.02% Triton X-100). The radioactivity was determined by adding 30 μl of microscintillant/well after each plate was dried at room temperature overnight or placed at 50° C. for 1 hr.
A Packard Top Count was used to read the filter plates. The data in % inhibition of binding was plotted vs. the log molar concentration of receptor ligand (compound). The IC50 was reported as the inflection point of the resulting sigmoidal curve.

Compound | IC50 [nM]
CC(C)(C)Cc1cnc(CCc2ccc(-c3ccccc3C(=O)O)cc2)[nH]1 [Example 1, 4′-{2-[4-(2,2-Dimethylpropyl)-1H-imidazol-2-yl]ethyl}biphenyl-2-carboxylic Acid] | 38
O=C(O)c1ccccc1-c1ccc(CCc2ncc(CC3CCCC3)[nH]2)cc1 [Example 26] | 117
O=C(O)c1cc(F)c(F)cc1-c1ccc(CCc2nc(CC3CCCCC3)c[nH]2)cc1 [Example 94] | 20
CCC(C)(C)Cc1c[nH]c(CCc2ccc(-c3cccc(C)n3)cc2)n1 [Example 110] | 6.3
CCC(C)(C)Cc1c[nH]c(CCc2ccc(-n3cccn3)cc2)n1 [Example 205, 1-(4-{2-[4-(2,2-dimethylbutyl)-1H-imidazol-2-yl]ethyl}phenyl)-1H-pyrazole] | 33
CCC(C)(C)Cc1c[nH]c(CCc2ccc(-c3cccc4cn[nH]c34)cc2)n1 [Example 221] | 4.8
CCC(C)(C)Cc1c[nH]c(CCc2ccc(N3CCCC[C@@H]3C(=O)O)cc2)n1 [Example 225, (R)-N-(4-{2-[4-(2,2-Dimethylbutyl)-1H-imidazol-2-yl]ethyl}phenyl)piperidine-2-carboxylic acid] | 18
CCC(C)(C)Cc1c[nH]c(CCc2ccc(N3CCCc4cn[nH]c43)cc2)n1 [Example 226, 7-(4-{2-[5-(2,2-Dimethylbutyl)-1H-imidazol-2-yl]ethyl}phenyl)-4,5,6,7-tetrahydro-1H-pyrazolo[3,4-b]pyridine] | 18
CCC(C)(C)Cc1c[nH]c(CCc2ccc(C3CCCCC3C(=O)O)cc2)n1 (stereo not shown) [Example 227, 2-(4-{2-[4-(2,2-Dimethylbutyl)-1H-imidazol-2-yl]ethyl}phenyl)cyclohexanecarboxylic acid] | 2.8
CC(C)(Cc1cnc(CCc2ccc(-c3ccc(F)cn3)cc2)[nH]1)C1CC1 [Example 236, 2-(4-{2-[5-(2-Cyclopropyl-2-methylpropyl)-1H-imidazol-2-yl]ethyl}phenyl)-5-fluoropyridine] | 25
CCC(CF)(CF)Cc1cnc(CCc2ccc(-c3ccc(F)cn3)cc2)[nH]1 [Example 237, 2-(4-{2-[5-(2,2-Bis(fluoromethyl)butyl)-1H-imidazol-2-yl]ethyl}phenyl)-5-fluoro-pyridine] | 15
CC(C)(C)Cc1cnc(CCc2ccc(-c3ccccn3)cc2)[nH]1 [Example 240, 2-(4-{2-[4-(2,2-Dimethylpropyl)-1H-imidazol-2-yl]ethyl}phenyl)pyridine] | 116
CCC(C)(C)Cc1c[nH]c(CCc2ccc(-c3ccccc3OCc3nn[nH]n3)cc2)n1 [Example 246, 5-(4′-{2-[4-(2,2-Dimethylbutyl)-1H-imidazol-2-yl]ethyl}biphenyl-2-yloxymethyl)-1H-tetrazole] | 5.3
